The supplement of paper PMC10307832

Tests used:
Assay in all cases: relative viability (nuclei count vs DMSO), 5 days (fraction); higher = more cells survive
[1] = compound: Cc1ccc(Nc2nccc(N(C)c3ccc4c(C)n(C)nc4c3)n2)cc1S(N)(=O)=O [Pazopanib] + CS(=O)(=O)CCNCc1ccc(-c2ccc3ncnc(Nc4ccc(OCc5cccc(F)c5)c(Cl)c4)c3c2)o1 [Lapatinib] (partner 2 µM)
Summary of the method: (§1)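 Nuclei were stained with Hoechst during a one-step fixation (final 0.05% Triton X-100, 1% formaldehyde, 1 ug/ml Hoechst) carried out 5 days after dosing, then counted on 4× images. The cells, lung cancer lines in 1536-well plates, had been dosed by pin tool the day after seeding with one drug alone or a fixed anchor-drug dose plus five library-drug doses (not always all listed) in √10 steps. Relative viability is the nuclei count in treated wells divided by that in vehicle wells, and each value is the median of duplicate plates.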

[2] = compound: Cc1ccc(C(=O)Nc2ccc(CN3CCN(C)CC3)c(C(F)(F)F)c2)cc1C#Cc1cnc2cccnn12 [Ponatinib] + O=C(CCCCCCC(=O)Nc1ccccc1)NO [Vorinostat] (partner 1 µM)
Summary of the method: as §1

[3] = compound: Cc1ccc(Nc2nccc(N(C)c3ccc4c(C)n(C)nc4c3)n2)cc1S(N)(=O)=O [Pazopanib] + O=C(CCCCCCC(=O)Nc1ccccc1)NO [Vorinostat] (partner 1 µM)
Summary of the method: as §1

[4] = compound: Cc1ccc(C(=O)Nc2ccc(CN3CCN(C)CC3)c(C(F)(F)F)c2)cc1C#Cc1cnc2cccnn12 [Ponatinib] + N=C(N)NC(=N)NCCc1ccccc1 [Phenformin] (partner 250 µM)
Summary of the method: as §1

EPLC-272H
relative viability ([1]; first compound 0.01 µM): 0.638 | relative viability ([1]; first compound 0.03162 µM): 0.797 | relative viability ([1]; first compound 0.1 µM): 1.01 | relative viability ([1]; first compound 0.3162 µM): 1.14 | relative viability ([1]; first compound 1 µM): 0.802 | relative viability ([2]; first compound 0.002 µM): 0.461 | relative viability ([2]; first compound 0.006325 µM): 0.525 | relative viability ([2]; first compound 0.06325 µM): 0.579 | relative viability ([2]; first compound 0.2 µM): 0.545 | relative viability ([3]; first compound 0.01 µM): 0.389 | relative viability ([3]; first compound 0.03162 µM): 0.432 | relative viability ([3]; first compound 0.1 µM): 0.682 | relative viability ([3]; first compound 0.3162 µM): 0.652 | relative viability ([3]; first compound 1 µM): 0.535 | relative viability ([4]; first compound 0.002 µM): 0.305 | relative viability ([4]; first compound 0.006325 µM): 0.336 | relative viability ([4]; first compound 0.06325 µM): 0.292 | relative viability ([4]; first compound 0.2 µM): 0.316
